From patent US8937072B2, “Substituted cyanoaniline compounds, preparation and use thereof” (Sinochem Corporation, priority 2011, dated 2015)

Assays:
[1] = test system: rice blast; test: microbe, parasite or virus in culture; assay type: cell-based; details: for the inhibition rate against rice blast (%) 0.03 mg/L: Table 21, 0.03 mg/L; for the inhibition rate against rice blast (%) 0.1 mg/L: Table 21, 0.1 mg/L; for the inhibition rate against rice blast (%) 0.3 mg/L: Table 21, 0.3 mg/L; for inhibition rate against rice blast: in vitro
[2] = test system: corn rust; test: Protectant activity in vivo (whole plant) against corn rust
Method: (§1) The method is as followed: The whole plant is used in this test. The compound is dissolved in a proper solvent to get mother solution. The proper solvent is selected from acetone, methanol, DMF and so on according to their dissolving capability to the sample. The volume rate of solvent and testing solution (v/v) is equal to or less than 5%. The mother solution is diluted with water containing 0.1% tween-80 to get the testing solution whose concentration is designed. The testing solution is sprayed to the host plant by a special plant sprayer. The plant is inoculated with fungus after 24 hours. According to the infecting characteristic of fungus, the plant is stored in a humidity chamber and then transferred into greenhouse after infection is finished. And the other plants are placed in greenhouse directly. The activity of compound is obtained by eyeballing after 7 days in common.

[3] = test system: cucumber downy mildew; test: Protectant activity in vivo (whole plant) against cucumber downy mildew
Method: as §1

[4] = test system: cucumber gray mold; test: Activity in vitro (96-well, High Through Put): inhibition rate against cucumber gray mold; assay type: cell-based
Method: The method is as followed: High Through Put is used in the test. The compound is dissolved in a proper solvent to become a testing solution whose concentration is designed. The solvent is selected from acetone, methanol, DMF and so on according to their dissolving capability to the sample. In a no animalcule condition, the testing solution and pathogens suspension are added into the cells of 96 cells culture board, which then should be placed in the constant temperature box. 24 hours later, pathogen germination or growth can be investigated by eyeballing, and the activity in vitro of the compound is evaluated based on germination or growth of control treatment.

Row | SMILES | the inhibition rate against rice blast (%) 0.03 mg/L [1] [%] | the inhibition rate against rice blast (%) 0.1 mg/L [1] [%] | the inhibition rate against rice blast (%) 0.3 mg/L [1] [%] | the protectant activity (%) against corn rust ([2]; 6.25 mg/L) [%] | the protectant activity (%) against corn rust ([2]; 25 mg/L) [%] | the protectant activity (%) against corn rust ([2]; 100 mg/L) [%] | the protectant activity (%) against corn rust ([2]; 400 mg/L) [%] | protectant activity against corn rust in vivo ([2]; dose 400 mg/L) [%] | the protectant activity (%) against cucumber downy mildew ([3]; 25 mg/L) [%] | the protectant activity (%) against cucumber downy mildew ([3]; 50 mg/L) [%] | the protectant activity (%) against cucumber downy mildew ([3]; 100 mg/L) [%] | protectant activity against cucumber downy mildew in vivo ([3]; dose 50 mg/L) [%] | protectant activity against cucumber downy mildew in vivo ([3]; dose 100 mg/L) [%] | protectant activity against cucumber downy mildew in vivo ([3]; dose 400 mg/L) [%] | further results
1 | N#Cc1c(Cl)c(Cl)c(Nc2c(Cl)cc([N+](=O)[O-])cc2Br)c(Cl)c1C#N [Compound A-46] | 100 | 100 | 100 | 75 | 85 | 95 | 100 | 100 | – | – | – | – | – | – | –
2 | N#Cc1c(Cl)c(Cl)c(Nc2ccc(C(F)(F)F)cc2Cl)c(C#N)c1Cl [Compound B-28] | 80 | 100 | 100 | – | – | – | – | – | 80 | 98 | 100 | 98 | 100 | 100 | the protectant activity (%) against cucumber downy mildew ([3]; 12.5 mg/L): 20%
3 | N#Cc1c(Cl)c(Cl)c(Nc2cc(C(F)(F)F)ccc2F)c(C#N)c1Cl [Compound B-30] | 0 | 50 | 100 | – | – | – | – | – | – | – | – | – | – | – | –
4 | N#Cc1c(Cl)c(Cl)c(Nc2ccc(Cl)cc2[N+](=O)[O-])c(C#N)c1Cl [Compound B-39] | 0 | 80 | 100 | – | – | – | – | – | – | – | – | – | – | 100 | –
5 | N#Cc1c(Cl)c(Cl)c(Nc2c(Br)cc([N+](=O)[O-])cc2Br)c(C#N)c1Cl [Compound B-57] | – | – | – | 60 | 80 | 85 | 100 | 100 | 100 | 100 | 100 | 100 | 100 | 100 | the inhibition rate against cucumber gray mold (%) ([4]; 0.9 mg/L): 80%; the inhibition rate against cucumber gray mold (%) ([4]; 2.8 mg/L): 100%; the inhibition rate against cucumber gray mold (%) ([4]; 8.3 mg/L): 100%; the protectant activity (%) against cucumber downy mildew ([3]; 12.5 mg/L): 30%; protectant activity against cucumber downy mildew in vivo ([3]; dose 25 mg/L): 100%
6 | COC(=O)c1cc(Cl)c(Nc2c(Cl)c(Cl)c(C#N)c(Cl)c2C#N)c(Cl)c1 [Compound B-62] | 0 | 80 | 100 | 0 | 30 | 60 | 100 | 100 | – | – | – | – | – | – | –
7 | N#Cc1c(Cl)c(Cl)c(Nc2c(Cl)c(Cl)c(C#N)c(Cl)c2C#N)c(C#N)c1Cl [Compound B-69] | – | – | – | – | – | – | – | 100 | – | – | – | – | – | 100 | inhibition rate against rice blast ([1]; dose 8.3 mg/L): 80%
8 | CN(C)c1c(Cl)c(Nc2c(Cl)cc([N+](=O)[O-])cc2Cl)c(C#N)c(Cl)c1C#N [Compound B-73] | 0 | 0 | 80 | 30 | 70 | 100 | 98 | 100 | 50 | 100 | 100 | 100 | 100 | 100 | inhibition rate against rice blast ([1]; dose 0.3 mg/L): 80%; protectant activity against corn rust in vivo ([2]; dose 100 mg/L): 100%
9 | N#Cc1c(Cl)c(Cl)c(Nc2nc(Cl)c(Cl)cc2Cl)c(C#N)c1Cl [Compound B-128] | 100 | 100 | 100 | – | – | – | – | – | – | – | – | 98 | 100 | 100 | –
